From patent US20140163034A1, “INHIBITORS OF ANANDAMIDE TRANSPORT AND THEIR THERAPEUTIC USES” (IIT - Istituto Italiano di Tecnologia, priority 2011, published 2014)

How the values were obtained:
[1] = tested on: carrageenan-treated mice; assay: Carrageenan-induced inflammatory pain and paw edema in mice; type: in vivo; conditions: for effect of antagonist on the anti-hyperalgesic and anti-edema effects of ARN272: antagonist 1 mg/kg intraperitoneal, 30 min before carrageenan
Procedure: Behavioral experiments were performed in accordance with the Ethical Guidelines of the International Association for the Study of Pain and approved by Italian regulations on protection of animals used for experimental and other scientific purposes (D.M. 116192) as well as with European Economic Community regulations (O.J. of E.C. L 358/1 Dec. 18, 1986). Behavioral testing was performed between 9:00 a.m. and 5:00 p.m., in a quiet room, during the light cycle. Mice were used once and were sacrificed at the end of the experiment by cervical dislocation. edema was elicited by injecting λ-carrageenan (1% weight/vol in sterile water, 20 μl) into the left hindpaw of mice. Edema was measured with a plethysmometer (Ugo Basile, Comerio, Italy) at different time intervals. Drug solutions were prepared immediately before use in saline containing 10% PEG-400 and 10% Tween 80. Mechanical hyperalgesia was determined by measuring the latency in seconds to withdraw the paw away from a constant mechanical pressure exerted onto the dorsal surface. A 15-g calibrated glass cylindrical rod (diameter=10 mm) chambered to a conical point (diameter=3 mm) was used to exert the mechanical force. The weight was suspended vertically between two rings attached to a stand and was free to move vertically. A cutoff time of 180 s was used. Withdrawal thresholds were measured on both the inflamed paw (ipsilateral) and not inflamed paw (contralateral) 2, 4, 6 and 24 hours after carrageenan injection. Thermal hyperalgesia was assessed by the method of Hargreaves et al. (1988) by measuring the latency to withdraw the hind paw from a focused beam of radiant heat (thermal intensity: infrared 3.0) applied to the plantar surface using a plantar test apparatus (Ugo Basile). The cutoff time was set at 30 s. Withdrawal latency were measured on both inflamed and not-inflamed paws ( ) 2, 4, 6 and 24 hours after carrageenan injection. Vehicle or ARN272 (0.01-3 mg/kg, intraperitoneal) were injected immediately before carrageenan. AM251, AM630 and AMG 9810 (1 mg/kg, intraperitoneal) were injected 30 min before carrageenan.

[2] = biological target: T1, FLAT-expressing Hek293 cells (Rattus norvegicus, UniProt P97612, DEL9-76); assay: [3H]-anandamide accumulation (translocation) in FLAT-expressing Hek293 cells; type: cell-based; conditions: for IC50: 5 min at 37° C., read-out: IC50, inhibition of [3H]-anandamide accumulation in FLAT-expressing Hek293 cells
T1 construct: expressed in transfected cells
T1 sequence (P97612 with tags, fused parts or gaps DEL9-76): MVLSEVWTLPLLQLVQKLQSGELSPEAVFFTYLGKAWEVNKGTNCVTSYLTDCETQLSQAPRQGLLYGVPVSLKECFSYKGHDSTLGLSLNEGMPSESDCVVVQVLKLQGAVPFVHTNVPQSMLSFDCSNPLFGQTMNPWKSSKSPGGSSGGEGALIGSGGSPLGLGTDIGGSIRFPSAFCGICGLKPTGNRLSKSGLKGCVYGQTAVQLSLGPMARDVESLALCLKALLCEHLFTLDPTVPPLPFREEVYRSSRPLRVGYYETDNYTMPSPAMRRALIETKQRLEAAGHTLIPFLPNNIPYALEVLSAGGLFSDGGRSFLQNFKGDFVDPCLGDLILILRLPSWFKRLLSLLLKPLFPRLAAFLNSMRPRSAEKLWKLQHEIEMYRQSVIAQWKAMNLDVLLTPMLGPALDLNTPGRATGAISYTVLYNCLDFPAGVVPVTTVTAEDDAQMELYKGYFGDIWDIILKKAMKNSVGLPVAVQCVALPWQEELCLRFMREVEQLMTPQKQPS

[3] = biological target: T2, rat FLAT-GST (Rattus norvegicus, UniProt P97612, DEL9-76); assay: [3H]-anandamide binding to purified GST-FLAT fusion protein
T2 construct: made in house; host or cells: E. coli BL21
T2 sequence (P97612 with tags, fused parts or gaps DEL9-76): T1 sequence (P97612 with tags, fused parts or gaps DEL9-76)
Procedure: A pGEX-rFLAT plasmid containing fused rat FLAT and GST genes was constructed into a pGEX-4T vector (Amersham Biosciences, Piscataway, N.J.) and digested with BamH 1. The GST-FLAT fusion protein was generated in E. coli (BL21 strain, Novagen, San Diego, Calif.). E. coli were cultured in 2× yeast extract medium and induced with isopropyl-1-thio-β-D-galactopyranoside (IPTG) (0.1 mM). After induction, bacteria were grown at 27° C. for 10 h and harvested by centrifugation. The GST-FLAT fusion protein was purified using glutathione-sepharose beads (Amersham Biosciences), following manufacturer's instructions. Purified GST-FLAT was incubated at 25° C. for 2 h in HEPES buffer (50 mM, pH 7.0) containing KCl (50 mM), EDTA (5 mM), dithiothreitol (10 mM), and [^3H]-anandamide (15 Ci/mmol). Free from bound [^3H]-anandamide was separated on a Sephadex G-25 spin column (Amersham Biosciences) and radioactivity in the bound fraction was measured by liquid scintillation counting. Non-specific binding was determined in the presence of non-radioactive anandamide (10 μM).

[4] = biological target: T3, CB1 cannabinoid receptors (Rattus norvegicus, UniProt P20272); assay: Cannabinoid receptor binding assay, [3H]-CP55940 to rat brain membranes
T3 construct: Brain membrane protein (50 μg) was incubated at 30° C. for 1 hr; from tissue; host or cells: rat brain membranes

[5] = biological target: T4, rat brain FAAH (Rattus norvegicus, UniProt P97612); assay: FAAH activity assay, rat brain; type: biochemical; conditions: weak and incomplete inhibition
T4 construct: from tissue; host or cells: rat brain membranes
T4 sequence (P97612 1-579): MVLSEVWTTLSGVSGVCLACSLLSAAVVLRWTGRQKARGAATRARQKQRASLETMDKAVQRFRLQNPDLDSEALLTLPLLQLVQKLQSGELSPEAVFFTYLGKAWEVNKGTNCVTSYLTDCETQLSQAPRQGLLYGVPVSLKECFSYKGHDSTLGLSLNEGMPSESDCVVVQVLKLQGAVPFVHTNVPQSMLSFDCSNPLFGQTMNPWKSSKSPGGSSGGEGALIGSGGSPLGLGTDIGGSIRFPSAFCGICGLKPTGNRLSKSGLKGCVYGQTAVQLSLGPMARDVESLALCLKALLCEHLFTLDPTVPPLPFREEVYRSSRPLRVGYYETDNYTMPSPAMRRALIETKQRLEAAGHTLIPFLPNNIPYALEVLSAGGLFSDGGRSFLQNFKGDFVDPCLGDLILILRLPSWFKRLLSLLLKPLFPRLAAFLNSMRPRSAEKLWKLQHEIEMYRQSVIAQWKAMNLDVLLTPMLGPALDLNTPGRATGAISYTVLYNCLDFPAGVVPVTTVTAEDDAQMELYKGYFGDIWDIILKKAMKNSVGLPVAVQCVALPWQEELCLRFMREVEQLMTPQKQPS
Procedure: Cells were harvested and subjected to sonication in Tris-HCl buffer (50 mM, pH 8.0) containing sucrose ([…]). Debris was removed by centrifugation for 5 min at 1,000×g, and protein concentration measured using a commercial kit (Bio-Rad, Hercules, Calif.). […] After stopping the reactions with chloroform/methanol (1:1, vol/vol, 1 ml), radioactivity was measured in the aqueous layers.

[6] = tested on: rat cortical neurons in primary cultures; assay: [3H]-anandamide accumulation in rat cortical neurons in primary cultures; type: cell-based; conditions: Cortical neurone, read-out: IC50, inhibition of [3H]-anandamide accumulation in rat cortical neurons
Procedure: Primary cultures of rat cortical neurons were prepared as described (Evans, M. S. et al., J Neurosci Methods, 79, 37 (1998)). Briefly, cerebral cortices from 18 day-old rat embryos were dissected and cells were dissociated gently with a glass Pasteur pipette in phosphate-buffered saline (PBS, 10 mM, pH=7.5) containing glucose (6%, weight/volume). The cells were plated in 6-well plates (at a density of 5×10^5 cells per well) coated with poly-(L)-ornithine (10 μg/ml) and poly(DL)-lysine (100 μg/ml), and cultured in Eagle's Minimum Essential Medium (MEM) supplemented with heat-inactivated horse serum (5%, vol/vol) and fetal bovine serum (FBS, 5%, vol/vol), glucose (30 mM), L-glutamine (2 mM), penicillin (10 units/ml), streptomycin (10 μg/ml) and HEPES (15 mM, pH 7.4). After 3 days in culture, media were replaced with Neurobasal (Invitrogen, Carlsbad, Calif.) supplemented with B-27 containing L-glutamine (0.1 mM), streptomycin (10 μg/ml) and penicillin (10 units/ml). The cultures were maintained at 37° C. in a humidified atmosphere of 95% air and 5% CO2. […] The cells were rinsed twice with Tris-Krebs buffer, scraped twice into sodium hydroxide (0.2 N, 0.5 ml) and transferred into scintillation vials. […] All experiments were conducted in triplicate.

[7] = biological target: T5, recombinant human FAAH-1 (Homo sapiens, UniProt O00519); assay: Hydrolysis of compound by incubation with recombinant human FAAH-1; type: in vitro ADME; conditions: after 24 h at 25° C.
T5 sequence (O00519 1-579): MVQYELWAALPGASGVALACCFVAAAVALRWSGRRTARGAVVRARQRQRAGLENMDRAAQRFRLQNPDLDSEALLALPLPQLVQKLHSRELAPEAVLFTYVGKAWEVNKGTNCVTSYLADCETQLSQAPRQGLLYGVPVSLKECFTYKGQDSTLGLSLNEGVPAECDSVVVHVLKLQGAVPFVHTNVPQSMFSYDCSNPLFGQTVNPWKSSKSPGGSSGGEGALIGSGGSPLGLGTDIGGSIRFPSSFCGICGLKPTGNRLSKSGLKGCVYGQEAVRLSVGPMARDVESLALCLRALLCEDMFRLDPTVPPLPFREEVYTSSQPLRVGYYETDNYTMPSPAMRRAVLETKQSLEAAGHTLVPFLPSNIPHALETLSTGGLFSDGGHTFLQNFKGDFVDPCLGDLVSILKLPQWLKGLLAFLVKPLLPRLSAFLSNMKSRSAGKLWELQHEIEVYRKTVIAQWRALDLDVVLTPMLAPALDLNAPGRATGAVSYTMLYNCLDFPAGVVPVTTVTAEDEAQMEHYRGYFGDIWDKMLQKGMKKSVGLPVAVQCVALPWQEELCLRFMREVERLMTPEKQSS

[8] = Fatty acid amide measurements ex vivo (plasma levels in mice); conditions: 1 mg/kg intraperitoneal
Procedure: CD1 mice received intraperitoneal injections of vehicle (5% polyethylene glycol 400-5% Tween-80 in saline, 5 ml/kg) or ARN272 (1 mg/kg) and were sacrificed 1 h or 2 h later under isoflurane anaesthesia. Blood was collected through a left cardiac puncture and centrifuged at 2000×g for 30 min. Plasma (0.2 ml) was incubated with 1 ml cold acetone, centrifuged at 1,500×g for 15 min at 4° C. and suspended in 50% methanol (2 ml) containing the following deuterium-containing standards: […] Lipids were reconstituted in methanol (0.1 ml) and measured by isotope-dilution liquid chromatography/mass spectrometry (Fu, J. et al., J Biol Chem, 282, 1518 (2007)).

[9] = tested on: rat cortical neurons; conditions: read-out: apparent Michaelis constant, KM, of anandamide transport; cited from earlier work

T3 sequence (P20272 whole entry): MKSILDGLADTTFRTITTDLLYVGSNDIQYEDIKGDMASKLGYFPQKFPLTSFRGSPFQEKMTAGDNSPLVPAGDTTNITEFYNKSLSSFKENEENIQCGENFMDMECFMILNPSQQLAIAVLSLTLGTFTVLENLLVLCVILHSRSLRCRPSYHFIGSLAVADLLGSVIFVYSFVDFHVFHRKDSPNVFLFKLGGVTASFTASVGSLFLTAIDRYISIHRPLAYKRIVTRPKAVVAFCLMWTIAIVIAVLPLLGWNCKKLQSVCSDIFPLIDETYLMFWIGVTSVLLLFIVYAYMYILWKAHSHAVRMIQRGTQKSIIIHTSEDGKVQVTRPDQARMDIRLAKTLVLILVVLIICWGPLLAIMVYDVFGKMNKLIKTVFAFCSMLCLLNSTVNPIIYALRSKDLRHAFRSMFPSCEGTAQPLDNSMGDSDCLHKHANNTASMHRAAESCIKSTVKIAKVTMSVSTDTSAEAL

## Cc1c(C(=O)NN2CCCCC2)nn(-c2ccc(Cl)cc2Cl)c1-c1ccc(I)cc1 [AM251, reference compound]
[1]
  effect of antagonist on the anti-hyperalgesic and anti-edema effects of ARN272: suppressed

## CCCCC/C=C\C/C=C\C/C=C\C/C=C\CCCC(=O)Nc1ccc(O)cc1 [AM404]
[2]
  IC50: 4 µM
[3]; purified recombinant FLAT, read-out: IC50, displacement of [3H]-anandamide binding to FLAT-GST
  IC50: 5.3 µM

## COc1ccc(C(=O)c2c(C)n(CCN3CCOCC3)c3cc(I)ccc23)cc1 [AM630, reference compound]
[1]
  effect of antagonist on the anti-hyperalgesic and anti-edema effects of ARN272: ineffective

## CC(C)(C)c1ccc(/C=C/C(=O)Nc2ccc3c(c2)OCCO3)cc1 [AMG9810, reference compound]
[1]
  effect of antagonist on the anti-hyperalgesic and anti-edema effects of ARN272: ineffective

## O=C(Nc1ccccc1)c1ccc(Nc2nnc(-c3ccc(O)cc3)c3ccccc23)cc1 [ARN272, 4-{[4-(4-hydroxyphenyl)phthalazin-1-yl]amino-N-phenylbenzamide}]
[4]
  effect on [3H]-CP55940 binding to rat brain membranes: did not significantly alter
[5]
  inhibition at 100 µM: 50%
[2]
  IC50: 3.5 µM
[6]
  IC50: 1.5 µM
[1]; 0.01-3 mg/kg intraperitoneal
  mechanical hyperalgesia in inflamed paws: dose-dependent reduction
  thermal hyperalgesia in inflamed paws: dose-dependent reduction
[1]; after intraplantar carrageenan
  duration of anti-hyperalgesic effect: up to 4 h
[1]; intraperitoneal
  paw edema: substantially reduced
[7]
  fraction hydrolyzed by recombinant human FAAH-1: ≈ 5%
[8]
  plasma concentrations of anandamide: increased
  plasma levels of 2-AG: without changing
  plasma levels of OEA: without changing
  plasma levels of PEA: without changing

## CCCCC/C=C\C/C=C\C/C=C\C/C=C\CCCC(=O)NCc1ccoc1 [UCM707]
[2]; transport inhibitors
  effect on [3H]-anandamide accumulation in FLAT-expressing Hek293 cells: prevented

## CCCCC/C=C\C/C=C\C/C=C\C/C=C\CCCC(=O)Nc1ccc(O)cc1C [VDM11]
[2]; transport inhibitors
  effect on [3H]-anandamide accumulation in FLAT-expressing Hek293 cells: prevented

## CCCCC/C=C\C/C=C\C/C=C\C/C=C\CCCC(=O)NCCO [anandamide]
[9]
  Km: 1.2 µM
[2]; non-radioactive anandamide, 100 μM
  effect on [3H]-anandamide accumulation in FLAT-expressing Hek293 cells: prevented
[3]; saturation binding, 25° C., 2 h, read-out: dissociation constant, Kd, of [3H]-anandamide binding to FLAT-GST
  Kd: 2 µM
